# Experiments:
# [1] = tested on: Botrytis cinerea; settings: samples at equivalent concentrations (0.2 M)
# [2] = pH of an aqueous solution of the compound (pH meter); assay type: physicochemical; settings: for pH: sample solution of Table 13 (0.2 M H2O2 and/or citrate)
# [3] = other compound containing hydrogen peroxide, dissolved; cited from earlier work
Compound,MIC Botrytis [1],pH [2],pH obtained by dissolving [3],pH of an aqueous solution ([2]; diluted 20× in water)
"O=C(O)CC(O)(CC(=O)O)C(=O)O [Acide citrique, Citric acid]",non actif,–,–,–
O.O.O.O=C([O-])CC(O)(CC(=O)[O-])C(=O)O.O=C([O-])CC(O)(CC(=O)[O-])C(=O)O.[Na+].[Na+].[Na+].[Na+] [Disodium citrate sesquihydrate],non actif,4.9,–,–
OO [Hydrogen peroxide],non actif,6.4,–,–
O=C([O-])[O-].O=C([O-])[O-].OO.OO.OO.[Na+].[Na+].[Na+].[Na+] [sodium percarbonate],–,–,11,–
O.O.O=C([O-])CC(O)(CC(=O)[O-])C(=O)[O-].OO.[Na+].[Na+].[Na+] [trisodium citrate monoperhydrate dihydrate],72 mM,8.2,–,7.6 (±0.3)
anhydrous disodium citrate monoperhydrate [disodium citrate perhydrate],108 mM,–,–,–
